Here are results for one compound from patent US11260132B2, “Engineered liposomes as cancer-targeted therapeutics” (Children's Medical Center Corporation, priority 2017, dated 2022).

This assay concerns MDA-MB-436 cells. Nature of the assay: CEL-Dox cytotoxicity, Dojindo cell viability assay (Example 1). In kind it is cell-based, human. To be noted: 6 h treatment, grown 48 h, CEL-Dox at 1.5:1. As for the experimental part: The cytotoxicity of CEL-Dox on TNBC cells were evaluated using a cell viability assay. 5×10^3 cells (MDA-MB-231 and MDA-MB-436) were seeded in each well of a 96 well plate and incubated for 24 h. Cells were treated with (1) PBS, (2) Free Dox, (3) non-specific IgG-conjugated, Dox-encapsulating liposomes (IgG-Dox-LPs), (4) ICAM-1 antibody-conjugated, Dox-encapsulating liposomes (ICAM-1-Dox-LP), (5) EGFR antibody-conjugated, Dox-encapsulating liposomes (EGFR-Dox-LP), and (6) Dox-encapsulating CELs at optimal ICAM-1/EGFR antibody ratios (4.2/1 for MDA-MB-231 cells, and 1.5/1 for MDA-MB-436 cells) at the final liposome concentration of 1 μM lipids per 10^6 cells for 6 hours. Cells were rinsed three times with PBS and grown for 48 hours. Cell viability was determined by a Dojindo cell counting kit using the protocol from the manufacturer (Rockville, Md.).

Take `COc1cccc2c1C(=O)c1c(O)c3c(c(O)c1C2=O)C[C@@](O)(C(=O)CO)C[C@@H]3O[C@H]1C[C@H](N)[C@H](O)[C@H](C)O1` [free Dox, doxorubicin]: the “half maximal inhibitory concentration (IC50)” value is 0.0355 µg/mL.
